One compound from US20100222421A1, “Usage of Baicalein in the Preparation of a Pharmaceutical Composition for the Treatment of Traumatic Brain Injury” (National Defense Medical Center, priority 2009, published 2010) can be followed below.

Format in all cases: in vivo, rat
The subject of data set [1] is rats with controlled cortical impact (CCI) injury. In words: Pilot dose-selection studies, behavioural deficits. The settings on record: 10 and 30 mg kg^-1 tested, result for 30 mg kg^-1 (unpublished observations). How it is done: Baicalein (30 mg kg^−1) dissolved in 10% dimethyl sulphoxide (0.25-0.3 mL) or a corresponding volume of vehicle (10% dimethyl sulphoxide) was administered i.p. immediately following injury or daily for 4 days (immediately, 25, 49 and 73 h) after injury. Behaviour testing using the rotarod, tactile adhesive removal, mNSS and beam walk tests was performed at 28 hours as well as 4, 7, 14, 21 and 28 days post-injury. At 14 and 28 days, the animals were killed, perfused intravascularly and their brains were processed with cresyl violet staining to assess contusion volume (n=8 for each group).

Data set [2] can be described thus: Body weight after CCI injury. The note with it: CCI-injured rats, 30 mg kg^-1 i.p.; P=0.8. How it is done:
(§1) A previously described CCI injury procedure was utilized (Chen et al., 2003). Male Sprague-Dawley rats, which have body weight of 250-300 g, were anaesthetized with sodium pentobarbital (i.p.; 50 mgkg^−1; Rhone Merieux, Harlow, UK) and placed in a stereotaxic frame. A 5-mm craniotomy was performed over the left parietal cortex, centered on the coronal suture and 3 mm lateral to the sagittal suture. Considerable care was taken to avoid injury to the underlying dura. Injury was made using a pneumatic piston with a rounded metal tip (2.5 mm diameter) that was angled 22.5° C. to the vertical so that the tip was perpendicular with the brain surface at the centre of the craniotomy. A velocity of 4 ms^−1 and a deformation depth 2 mm below the dura were used. The bone flap was immediately replaced and sealed, and the scalp was closed with sutures. Body temperature was monitored throughout the surgery by a rectal probe; temperature was maintained at 37.0±0.5° C. using a heated pad. Rats were placed in a heated cage to maintain body temperature, while recovering from anaesthesia.
Baicalein (30 mg kg^−1) dissolved in 10% dimethyl sulphoxide (0.25-0.3 mL) or a corresponding volume of vehicle (10% dimethyl sulphoxide) was administered i.p. immediately following injury or daily for 4 days (immediately, 25, 49 and 73 h) after injury. […]

Data set [3] relates to IL-1β mRNA. In words: Real-time quantitative RT-PCR, IL-1β mRNA after CCI injury. The settings on record: single-dose 30 mg kg^-1 i.p.; ipsilateral cortex, 6 h after injury; P<0.01. How it is done:
as §1, with “The bone flap was immediately replaced and sealed, and the scalp was closed with sutures.” left out, “[…] Testing after injury was as follows: (1) real-time quantitative RT-PCR analysis for TNF-α, IL-1β and IL-6 mRNA expression at 6 h post-injury (n=7 for each group); (2) FluoroJade B (FJB) staining, TNF-α, IL-1β and IL-6 immunohistochemistry, as well as ELISA at 24 h post-injury” for “Rats were placed in a heated cage”, “assess degenerative neurons and to determine cytokine expression (n=7 for each group). […] Approximately 50 mg tissue was collected” for “maintain body temperature, while recovering”, “the ipsilateral (injured) hemisphere and processed for real-time quantitative RT-PCR. […]” for “anaesthesia.”

Take `O=c1cc(-c2ccccc2)oc2cc(O)c(O)c(O)c12` [baicalein]: the “neuroprotective effects in improving behavioural deficits” value in data set [1] is given as “found to have neuroprotetcive effects”. Also, the “body weight, baicalein versus vehicle” value in data set [2] is recorded as “no significant difference”. Besides, the “IL-1β mRNA level, % of level in vehicle-treated injured rats” value in data set [3] is given as 63%.
